# Assay results reported in US20230041065A1, “METHODS FOR GENERATING HEMATOPOIETIC STEM CELLS” (The Brigham and Women`s Hospital, Inc., priority 2019, published 2023).
# Entries after “also recorded” stand apart in the source; their conditions may differ.
# What was measured:
# [1] = tested on: human iPSC-derived hemogenic endothelial cells; assay: Yoda1 treatment of human iPSC-derived hemogenic endothelial cells: EHT and gene expression; type: cell-based
# Description: To determine the role of Dnmt3b in the EHT, we analyzed the endothelial and hematopoietic gene expression levels using whole transcriptome analyses. […] To consolidate our findings, we further independently measured the transcript levels of endothelial and hematopoietic genes. […] In summary, pulsation-mediated Piezo1 activation enhances Dnmt3b expression to repress endothelial genes, stimulating the endothelial-to-HSC transition. To analyze the conserved role of PIEZO1-mediated mechanosensitive mechanisms in human hematopoiesis, we employed directed differentiation of constitutive RUNX1c:tdTomato human induced pluripotent stem cells (iPSCs) to hemogenic endothelial cells, and treated such hemogenic endothelial cells with Yoda1.
# Embryoid body and hemogenic endothelium differentiation was performed as described in (Sugimura et al. 2017; Ditadi et al. 2015). Briefly, hiPSC colonies were dissociated with 0.05% trypsin for 5 min at 37° C., washed with PBS+2% FBS, and resuspended in StemPro-34 (Invitrogen, 10639-011) supplemented with L-glutamine (2 mM), penicillin/streptomycin ([…]), ascorbic acid (1 mM), human holo-Transferrin ([…], Sigma T0665), monothioglycerol (MTG, 0.4 mM), BMP4 (10 ng/ml), and Y-27632 (10 μM). Five million cells were seeded into 10 cm dishes (Ezsphere, Asahi Glass) for the spheroid formation. On Day 1, bFGF (5 ng/ml) and BMP4 (10 ng/ml) was added to the medium. On Day 2, the media was changed with the StemPro-34 supplemented with SB431542 (6 μM), CHIR99021 (3 μM), bFGF (5 ng/ml), and BMP4 (10 ng/ml). On Day 3, the medium was replaced with StemPro-34 supplemented with VEGF (15 ng/ml) and bFGF (10 ng/ml). On day 6, the medium was changed to StemPro-34 supplemented with bFGF (5 ng/ml), VEGF (15 ng/ml), interleukin (IL)-6 (10 ng/ml), IGF-1 (25 ng/ml), IL-11 (5 ng/ml), SCF (50 ng/ml) and EPO (2IU). The cells were maintained in a 5% CO2, 5% O2 and 95% humidity incubator. All cytokines were purchased from Peprotech.
# [2] = tested on: human PSC (DF19-9-7T)-derived hCD34+ hematopoietic cells; assay: Transplantation of human PSC-derived hCD34+ hematopoietic cells in humanized mice; type: in vivo
# [3] = tested on: donor-derived blood lineages; assay: Functional and phenotypic analyses of donor-derived blood lineages in primary transplant; type: in vivo, mouse
# Description: Pulsating blood vessels like conditions were stimulated in vitro using Flexcell FX-4000 machine. To analyze roles of pharmacological targets in regulating the endothelial-to-HSC transition, mouse embryo-derived AGM or whole mouse embryo were exposed ex vivo with biomechanical stretching, chemicals, or drugs. Next, hematopoietic colony formation assays were performed by incubating mouse AGM-derived cells in StemCell M3434 media for seven days. Serial transplantation of AGM-derived HSCs in lethally irradiated SJL mice were performed. The stem cell frequency upon biomechanical stretching was analyzed using a limiting dilution assay. To characterize properties of AGM-HSC-derived blood cells in primary transplants, percentage chimerism and reconstitution was measured using FACS, globin transcripts were analyzed using quantitative reverse transcriptase-PCR, myeloperoxidase amount was measured using PicoKine ELISA kit, TCR-β rearrangement was analyzed using PCR for TCR-β locus, pre-immune IG detection was analyzed using Thermo-Fisher Mouse Ig Isotyping kit, and delayed-type hypersensitivity was analyzed by injecting sheep RBC (Rockland Immunochemicals) in the footpad of pre-sensitized mice.
# FACS was used to sort erythroid precursors (Cd45.2^+, Ter119^+, Cd71^+) from the unlysed bone marrow isolated from AGM-transplanted mice. Total RNA was isolated using the RNAeasy Minikit (QIAGEN) and cDNA synthesis performed using Superscript III (Invitrogen). Quantitative real-time PCR was performed using SYBR Green (QuantaBio) on an MX3000P machine with the indicated primers (Sankaran et al., 2009). We normalized the expression to that of glyceraldehyde-3-phosphate-dehydrogenase (Gapdh) (Ochida et al., 2010).
# Neutrophils (Cd45.2^+, Gr1^+, Mac1^+) were FACS sorted from the isolated bone marrow of 16 week-primary transplanted mice and cultured in IMDM with 10% FBS overnight (500,000 cells/mL) in 24-well plates. Supernatant was collected and the MPO concentration measured using the Mouse MPO/Myeloperoxidase PicoKine™ ELISA Kit (Boster). The MPO concentration was also measured in blood serum.
# T cells (Cd45.2^+, Cd3^+) and myeloid cells (Cd45.2^+, Mac1^+) were FACS sorted from the splenocytes of 16 week-primary transplanted mice. Next, genomic DNA was extracted, and PCR performed for DH (β2.1-JH (32.7 rearrangements within TCR-β locus. Our samples were denatured (94° C., 1 min), annealed (63° C., 2 mins) and extended (72° C., 2 mins) for 35 cycles. Primer sequences are as follows:
# Transplant mice were sensitized with sheep red blood cells (sRBC, 10^9 cells/mL, 50 μL per site, Rockland Immunochemicals) through subcutaneous (lower back) and intradermal injections (right footpad). […] After 48 hours of the challenge, the footpad thickness was measured with a micro-caliper. […]
# Dnmt3b = Dnmt3b protein level in nuclear fractions of E11.5 AGM cells; type: cell-based, mouse
# Description: RNA-sequencing analyses were performed to measure gene expression patterns in mouse AGM treated with cyclic strain or pharmacological modulators. Using computational algorithms, hierarchical clustering was performed of differentially expressed genes as well as measured their overrepresented biological processes and pathways. Gene expression clusters of differentially expressed genes were analyzed and their mean expression level across cell populations compared. Next, Venn comparison of up- and down-genes was constructed to analyze candidate(s) important for cyclic strain- or pharmacological modulator(s)-mediated the endothelial-to-HSC transition. Furthermore, Dnmt3b and Dnmt3a protein expressions were analyzed in nuclear fractions of mouse AGM cells using EqiQuick assay kits. Data are presented as mean±s.d. unless otherwise noted. Statistical analyses were performed by paired or un-paired Student's t-tests. Significance was set at P<0.05.
# Nuclear extracts from AGM explants were harvested using an EpiQuik Nuclear Extraction Kit (Epigentek Group Inc.). Dnmt3b and Dnmt3a protein levels were analyzed using a colorimetric EpiQuik Assay Kit (Epigentek Group Inc.), according to the manufacturer's instructions. Concentration of Dnmt3b and Dnmt3a is relative to 1 μg of nuclear extract proteins.
# [4] = human iPSC-derived hemogenic endothelial cells
smiles,measurement,setting,value
"Clc1cccc(Cl)c1CSc1nnc(-c2cnccn2)s1 [Yoda1, 2-[5-[[(2,6-Dichlorophenyl)methyl]thio]-1,3,4-thiadiazol-2-yl]-pyrazine]",human endothelial-to-hematopoietic transition,[1]; RUNX1c:tdTomato human iPSC-derived hemogenic endothelial cells,stimulated the human endothelial-to-hematopoietic transition
same,DNMT3A expression,[1]; [4],not DNMT3A expression
same,DNMT3B expression,[1]; [4],enhanced DNMT3B expression
same,"expression of endothelial genes (VEGFA, HEY2, GPR116, GNA13, CDH5, PLXND1)",[1]; [4],silenced endothelial genes
same,"expression of hematopoietic genes (RUNX1, SPI1, CEBPA, TAL1, GATA2)",[1]; [4],induced the expression of hematopoietic genes
same,"percentage of bone marrow reconstitution to human CD33+, CD3+ and CD19+ cells",[2]; primary transplant,stimulates the formation of hCD34+ hematopoietic cells that reconstitute multi-lineage blood
same,percentage of bone marrow chimerism,"[2]; primary transplant, after 8-10 weeks",enhances the formation of engraftable human CD34+ cells; also recorded: enhances the formation of engraftable hCD34+ cells
same,"percentage peripheral blood reconstitution to human CD33+, CD3+ and CD19+ cells",[2]; secondary transplant,stimulates the formation of human LT-HSCs that reconstitute multi-lineage blood upon serial transplantation
same,percentage of peripheral blood chimerism,"[2]; secondary transplant, after 16 weeks",enhances the formation of self-renewing LT-HSCs
same,expression of adult and embryonic hemoglobin types in donor erythroid cells,"[3]; bone marrow Cd71+Ter119+ sorted cells, primary transplant",reconstitutes to red cells containing adult hemoglobin
same,myeloperoxidase (MPO) of donor neutrophils,"[3]; bone marrow Gr1+Mac1+ sorted cells, overnight culture, ELISA",reconstitute to functional myeloid cells displaying sufficient MPO levels
same,delayed-type hypersensitivity,"[3]; primary transplant mice, footpad",possess T-cell mediated immune response
same,TCRβ locus rearrangement of donor T cells,[3]; spleen-sorted Cd3+ T cells,display T-cell receptor β (TCR β) rearrangement
same,Dnmt3b protein expression,Dnmt3b,specifically stimulates Dnmt3b protein expression levels
